Key:
LYas cells = experiment: % killing of LYas cells with apoptolidin or oligomycin plus oxamate; format: cell-based, murine; details: 7 hours; for lowest concentration showing substantial killing in presence of oxamate: LYas cells 1×10^6 ml, with oxamate
Experimental: Similar results are shown in FIG. 8 for LYas cells, where cells planted at 1×10^6 ml were assessed for % killing after 7 hours when treated with various concentrations of apoptolidin or oligomycin in the presence of various concentrations of oxamate. When no apoptosis drugs are administered, there is no effect of oxamate up to a concentration of 15 mM. However, at concentrations where the oxamate alone has no effect, both oligomycin and apoptolidin were able to show substantial killing at concentrations as low as 0.1 mM.

Jurkat cells = experiment: Sensitization of Jurkat cells to apoptolidin by oxamate or deoxyglucose; format: cell-based
Experimental: For example, Jurkat cells planted at 40,000 cells per well and treated with 1 μM of apoptolidin show no cell death over a time period of 20 hours. […] Treatment with these amounts of oxamate alone has no effect. (Oxamate is a known inhibitor of lactate dehydrogenase; which converts pyruvate to lactate.)
Another compound known to repress the flow of glucose through the fermentative pathway is deoxyglucose which competes with glucose for this pathway but results in a dead end. […] Deoxyglucose alone at the control concentrations has no effect.

[1] = system: breast carcinoma cell line MCF-7; experiment: MTT assay, MCF-7 cells; format: cell-based; details: Homo sapiens, MCF7; MCF-7, 120 hours
Experimental: (§1) Activity was measured by FACS staining for annexin V and by MTT assay.
The breast carcinoma cell line MCF-7 was tested in 96-well plates in triplicate. Dilutions of apoptolidin or the compound of formula 1 were added to the wells for 120 hours. MTT was then added to the wells at a final concentration of 0.5 mg/ml. The supernatant was removed and the crystals dissolved in 40 mM HCl and isopropanol. The plates were scanned on a microplate reader at 595 nm. The IC50 of the compound of formula 1 was 10 μM; the IC50 of apoptolidin was 90 nM.

[2] = Stability by analytical reverse phase HPLC at pH 4, 7 and 10; format: physicochemical; details: for time structure retained: pH 4; for time remained intact / decomposition: pH 10
Experimental: Stability was monitored by an analytical reverse phase HBLC using a Beckman C18 column (4.6 mm×25 cm). Stability was analyzed in this manner at pH 4, 7 and 10, both for apoptolidin and the compound of formula 1. At pH 4, apoptolidin retained its structure for 24 hours; the compound of formula 1 for at least 28 hours when observation was terminated.

[3] = target: T1, yeast mitochondrial FOF1-ATP synthase (Saccharomyces cerevisiae, UniProt P00830+P07251+P38077+P61829); experiment: Yeast mitochondrial ATPase activity assay; format: biochemical; details: for consumption of NADH: 80 μM oligomycin or 87 μM apoptolidin, 20 μg yeast mitochondrial protein; for Ki: yeast mitochondria, pH 8, read-out: calculated Ki, ATPase activity
T1 construct: 20 μg of yeast mitochondrial protein (as measured by the Lowry method) was added to reaction buffer; endogenous in cells; host or cells: Crude mitochondria from Saccharomyces cerevisiae strain DBY7286 grown on lactate
Experimental: The assay is that described in Example 4 hereinbelow where the combination of pyruvate kinase and LDH effect conversion of phosphoenol pyruvate to lactate in the presence of ATP and NADH. With increasing concentrations of either drug, the specific activity of the enzyme rapidly declines. The calculated Ki values for oligomycin and apoptolidin are 1 μM and 5 μM respectively. Although the observed Ki for apoptolidin is five-fold higher than that for oligomycin, this may be an underestimate of the potency of apoptolidin. […] Mitochondrial ATPase activity assays are typically performed at pH 8. Thus, the true Ki for apoptolidin may be lower than that observed herein and accounts for the observation the IC50 values for apoptolidin against both LYas as well as MCF7 cells are substantially lower than the measured Ki against mitochondrial ATPase. This difference might be explained by a preference for mammalian ATPase over yeast ATPase, or by the possibility that apoptosis via this pathway is a dominant phenotype.
Crude yeast mitochondria were isolated from a lactate grown Saccharomyces cerevisiae strain DBY7286 (mata, ura-/-) according to published procedures. Briefly, 2 L shake flasks of yeast were grown up on semisynthetic lactate medium at 30° C. with vigorous shaking to an OD600 of 3. Cells were collected at 4000 g and the wet weight of the pellet was determined. Cells were converted to spheroplasts by a 30 minute incubation at 30° C. with 2.5 mg Zymolyase 20T (ICN Biochemicals) per gram of packed cells in a volume of 2 ml per gram of packed cells in Buffer A (1.2 M sorbitol, 20 mM potassium phosphate, pH 7.4). The Zymolyase 20T was washed out twice by centrifugation at 4000 g and resuspension in Buffer A. The spheroplasts were then resuspended in Buffer B (0.6 M sorbitol, 20 mM K^+ MES, pH6.0) with 0.5 mM PMSF and homogenized in a 40 ml glass Dounce homogenizer using 15 strokes with a tight-fitting pestle. The unbroken spheroplasts were collected by centrifugation at 1500 g and rehomogenized with 15 strokes in Buffer B plus PMSF. […] The protein concentration was determined by the Lowry assay and the dark brown mitochondria were resuspended in Buffer C (0.6 M sorbitol, 20 mM HEPES, pH 7.4). Mitochondria were prepared fresh and ATPase activity was measured within 6 hours.
Mitochondrial ATPase activity was measured by standard methods. Briefly, 20 μg of yeast mitochondrial protein (as measured by the Lowry method) was added to reaction buffer containing 50 mM Tris (pH 8.0), 1 mM ATP, 0.3 mM NADH, 3.3 mM MgCl2, 2 μg/ml antimycin A, 1 mM phosphoenol pyruvate, 5 U/ml lactate dehydrogenase, and 2.5 U/ml pyruvate kinase at 28° C. […]

PARP = PARP cleavage in the presence of apoptolidin; format: cell-based; details: 1 μM apoptolidin, within 6 hours
Description: Among those cells which have high ATP requirements, aerobic cells are sensitive, while anaerobic cells are resistant.

[4] = system: mouse B cell lymphoma cell line LYAS; experiment: FACS staining for annexin V, LYAS cells; format: cell-based; details: 6 hours incubation, read-out: IC50, percentage of annexin V+ cells
Experimental: as §1
The mouse B cell lymphoma cell line LYAS was incubated with apoptolidin in a compound of formula 1 for 6 hours. The treating compounds were removed and the cells were stained with annexin V-CY5PE for 15 minutes and washed 3 times. Cells were analyzed on the FACSAN and the percentage of annexin V+ cells was quantified. The IC50 of the compound of formula 1 was 10 μM; the IC50 of apoptolidin was 100 nM.

[5] = system: mouse B cell lymphoma cell line LYAS; details: FACS staining for Annexin V; cited from earlier work
[6] = system: breast carcinoma cell line MCF-7; details: MCF-7, MTT assay; cited from earlier work

Structure (SMILES)	lowest concentration showing substantial killing in presence of oxamate (LYas cells) [mM]	IC50 [1] [µM]	time structure retained [2]	time remained intact / decomposition [2]	consumption of NADH [3]	Ki [3] [µM]	IC50 [4] [µM]	also measured
COC[C@@H](C[C@H]1O[C@@](O)([C@H](O)[C@@H]2C[C@H](OC)[C@@H](O)CC/C=C(C)/C=C/[C@@H](O[C@@H]3O[C@@H](C)[C@H](OC)[C@@H](O)[C@@H]3O)[C@H](C)/C=C(C)/C=C(C)/C=C(\C)C(=O)O2)[C@H](C)[C@@H](O)[C@H]1C)OC1C[C@](C)(O)[C@@H](O[C@H]2C[C@@H](OC)[C@H](O)[C@@H](C)O2)[C@H](C)O1 (stereo partly drawn) [apoptolidin]	0.1	0.09	24 h	decomposed almost immediately	dramatically reduced	5	0.1	cell death (Jurkat cells; 1 μM apoptolidin + 5 mM oxamate): does not dramatically change this result; time at which cell death begins (Jurkat cells; 1 μM apoptolidin + 50 mM oxamate): four; cells killed (Jurkat cells; 1 μM apoptolidin + 50 mM oxamate, by 20 hours): 95%; cell death (Jurkat cells; 1 μM apoptolidin alone, 40,000 cells per well, over 20 hours): no cell death; half-life ([2]; buffer, pH 7, read-out: decomposition half-life (converted)): ~5 h; PARP cleavage (PARP): completely cleaved
COC[C@H](O)C[C@H]1O[C@@](O)([C@H](O)[C@@H]2C[C@H](OC)[C@@H](O)CC/C=C(C)/C=C/[C@@H](O[C@@H]3OC(C)[C@H](OC)[C@@H](O)[C@@H]3O)[C@H](C)/C=C(C)/C=C(C)/C=C(\C)C(=O)O2)C(C)=C[C@H]1C (stereo partly drawn) [compound of formula 1]		10	at least 28 hours	at least 28 hours			10	time remained intact ([2]; pH 7): at least 28 hours; cytotoxic activity relative to apoptolidin [5]: 1%; cytotoxic activity relative to apoptolidin [6]: 1%
O=CC[C@@H](O)[C@H](O)[C@H](O)CO [deoxyglucose, 2-deoxyglucose]								effect on cell death, enhancer alone (Jurkat cells; deoxyglucose alone at the control concentrations): no effect; lowest deoxyglucose concentration at which apoptolidin effects apoptosis (Jurkat cells; with 1 μM apoptolidin): 5 mM
CC[C@H]1/C=C/C=C/C[C@@H](C)[C@H](O)[C@@](C)(O)C(=O)[C@@H](C)[C@H](O)[C@@H](C)C(=O)[C@@H](C)[C@H](O)[C@@H](C)/C=C/C(=O)O[C@@H]2[C@H](C)[C@H](CC1)O[C@]1(CC[C@H](C)[C@H](C[C@@H](C)O)O1)[C@H]2C [oligomycin]	0.1				dramatically reduced	1		
NC(=O)C(=O)O [oxamate]								effect on % killing, oxamate alone (LYas cells; no apoptosis drug, up to 15 mM oxamate): no effect; effect on cell death, enhancer alone (Jurkat cells; oxamate alone, 5 mM and 50 mM): no effect

— patent publication US6974664B2, “Screening method for cancer therapeutics and stable antitumor drug” (The Board of Trustees of the Leland Stanford University, priority 2000, dated 2005)
